Common to all, as to type: in vivo
The nature of test [1]: Experiment 6 sensory evaluation of cyclic dipeptides, “middle fullness (enhanced thickness)”. How it is done:
(§1) An aqueous solution in which the concentration of each of the cyclic dipeptides shown in the table described below is set to be the same as its concentration in the heat-treated coriander prepared in 1.1. described above, as estimated from the ratio of the peak area of the cyclic dipeptides to the peak area of the internal standard (47 μg/g of L-lysine-^13C6 monohydrochloride) (hereinafter referred to as “heat-treated coriander equivalent aqueous solution”) was prepared. An aqueous solution in which the concentration of each of the cyclic dipeptides is set to be the same as its concentration in the heat-treated paprika of Example 203 prepared in 2.1 described above (hereinafter referred to as “heat-treated paprika equivalent aqueous solution”) was also prepared. Cyclic dipeptides prepared by the applicant were used in this experiment. As a cyclic dipeptide comprising Leu/Ile, a mixture comprising equal parts of cyclic dipeptide comprising Leu and cyclic dipeptide comprising Ile was used.
(§2) Common and reduced-sodium curry rouxes were prepared according to the procedures described in (1) and (2) of 1.3. described above.
(§3) Two dispersions of 44 g of the aforesaid reduced-sodium curry roux dispersed in 300 g of hot water were prepared. To one of them was added the heat-treated coriander equivalent solution or heat-treated paprika equivalent aqueous solution of the individual cyclic dipeptides shown in the table described below so as to be in the final concentration of 0.5% (w/w) or 1.0% (w/w), respectively.
(§4) Forty-four grams of the aforesaid common curry roux was dispersed in 300 g of hot water.
(§5) The dispersion of reduced-sodium curry roux dispersed in hot water and the dispersion of common curry roux dispersed in hot water were used as comparative controls, and the strength of the flavor was evaluated by three evaluators on the basis of the following evaluation criteria from the viewpoint of “top sharp saltiness”, “middle fullness (enhanced thickness) and “boosting of last flavor (aftertaste).”
(§6) The average of the evaluated scores was defined as “F” when it was 1.0 or lower, “C” when it was 1.1 or higher and 1.9 or lower, “B” when it was 2.0 or higher and 2.5 or lower, “A” when it was 2.6 or higher and 2.9 or lower, and “AA” when it was 3.0 or higher.
(§7) In the table described below, “ID” refers to the compound ID described above. The items of “coriander 0.5%” and “coriander 1.0%” refer to the addition of the aforesaid heat-treated coriander equivalent aqueous solution of cyclic dipeptide so that the final concentrations may be 0.5% (w/w) and 1.0% (w/w), respectively. The items of “paprika 0.5%” and “paprika 1.0%” refer to the addition of the aforesaid heat-treated paprika equivalent aqueous solution of cyclic dipeptide so that the final concentration may be 0.5% (w/w) and 1.0% (w/w), respectively.

Test [2] can be described thus: Experiment 6 sensory evaluation of cyclic dipeptides, “boosting of last flavor (aftertaste)”. How it is done: as §1, §2, §3, §4, §5, §6, §7
Test [3] is described as follows: Experiment 6 sensory evaluation of cyclic dipeptides, “top sharp saltiness”. How it is done: as §1, §2, §3, §4, §5, §6, §7
Where [4] appears, read: Additive amount coriander 0.5%, reduced-sodium curry roux.
Where [5] appears, read: heat-treated coriander equivalent aqueous solution of cyclic dipeptide, final 1.0% (w/w) in reduced-sodium curry roux dispersion.
Setting [6] is: heat-treated coriander equivalent aqueous solution of cyclic dipeptide, final 1.0% (w/w) in reduced-sodium curry roux dispersion, 3 evaluators.
Where [7] appears, read: Additive amount coriander 0.5% (heat-treated coriander equivalent aqueous solution, final 0.5% (w/w)), reduced-sodium curry roux.
[8] abbreviates: Additive amount paprika 0.5%, reduced-sodium curry roux.
Where [9] appears, read: heat-treated paprika equivalent aqueous solution of cyclic dipeptide, final 1.0% (w/w) in reduced-sodium curry roux dispersion.
The mark [10] stands for this setting: heat-treated paprika equivalent aqueous solution of cyclic dipeptide, final 1.0% (w/w) in reduced-sodium curry roux dispersion, 3 evaluators.
The mark [11] stands for this setting: Additive amount paprika 0.5% (heat-treated paprika equivalent aqueous solution, final 0.5% (w/w)), reduced-sodium curry roux.

As for cyclic (Glu-His) [Coriander ID 6], the figures for the “Middle fullness Average” value in test [1] (setting [4]) and in test [1] (setting [6]) were 3.3 points and 3.8 points, respectively. The “Middle fullness Evaluation” value in test [1] (setting [4]) and in test [1] (setting [5]) was “AA (“AA” when it was 3.0 or higher)” throughout. Further, the “Bosting of last flavor Average” value is 3.0 points in test [2] (setting [4]) and 3.7 points in test [2] (setting [6]). The “Bosting of last flavor Evaluation” value in test [2] (setting [4]) and in test [2] (setting [5]) was “AA (“AA” when it was 3.0 or higher)” in each case. Besides, the “Top sharp saltiness Average” value turned out to be 3.2 points in test [3] (setting [7]) and 4.0 points in test [3] (setting [6]). Also, the “Top sharp saltiness Evaluation” value in test [3] (setting [4]) and in test [3] (setting [5]) was “AA (“AA” when it was 3.0 or higher)” each time.
Regarding “cyclic (Leu/Ile-Leu/Ile) [Coriander ID 1]”, the results for the “Middle fullness Average” value in test [1] (setting [8]) and in test [1] (setting [10]) were 2.7 points and 1.8 points, respectively. In addition, the “Middle fullness Evaluation” value was “A (“A” when it was 2.6 or higher and 2.9 or lower)” in test [1] (setting [8]); “C (“C” when it was 1.1 or higher and 1.9 or lower)” in test [1] (setting [9]). Further, the “Bosting of last flavor Average” value in test [2] (setting [8]) turned out to be 3.0 points; in test [2] (setting [10]), 2.3 points. Further, the “Bosting of last flavor Evaluation” value in test [2] (setting [8]) was “AA (“AA” when it was 3.0 or higher)”; in test [2] (setting [9]) it was “B (“B” when it was 2.0 or higher and 2.5 or lower)”. Moreover, the “Top sharp saltiness Average” value in test [3] (setting [11]) was 2.7 points; in test [3] (setting [10]), 1.7 points. For the same substance, the “Top sharp saltiness Evaluation” value in test [3] (setting [8]) is “A (“A” when it was 2.6 or higher and 2.9 or lower)”; in test [3] (setting [9]) it was “C (“C” when it was 1.1 or higher and 1.9 or lower)”.
Consider cyclic (Pro-Leu/Ile) [Coriander ID 39], for which the “Middle fullness Average” value in test [1] (setting [4]) and in test [1] (setting [6]) was 1.8 points each time. Further, the “Middle fullness Evaluation” value in test [1] (setting [4]) is “C (“C” when it was 1.1 or higher and 1.9 or lower)”; in test [1] (setting [5]), “C (“C” when it was 1.1 or higher and 1.9 or lower)”. The results for the “Bosting of last flavor Average” value in test [2] (setting [4]) and in test [2] (setting [6]) were 2.2 points and 1.7 points, respectively. For the same substance, the “Bosting of last flavor Evaluation” value in test [2] (setting [4]) was “B (“B” when it was 2.0 or higher and 2.5 or lower)”; in test [2] (setting [5]), “C (“C” when it was 1.1 or higher and 1.9 or lower)”. In addition, the figures for the “Top sharp saltiness Average” value in test [3] (setting [7]) and in test [3] (setting [6]) were 1.5 points and 1.8 points, respectively. Also, the “Top sharp saltiness Evaluation” value in test [3] (setting [4]) is “C (“C” when it was 1.1 or higher and 1.9 or lower)”; in test [3] (setting [5]), “C (“C” when it was 1.1 or higher and 1.9 or lower)”.
Regarding cyclic (Gly-His) [Coriander ID 4], the figures for the “Middle fullness Average” value in test [1] (setting [4]) and in test [1] (setting [6]) were 3.3 points and 2.7 points, respectively. Moreover, the “Middle fullness Evaluation” value in test [1] (setting [4]) is “AA (“AA” when it was 3.0 or higher)”; in test [1] (setting [5]) it was “A (“A” when it was 2.6 or higher and 2.9 or lower)”. For the same substance, the results for the “Bosting of last flavor Average” value in test [2] (setting [4]) and in test [2] (setting [6]) were 3.5 points and 2.5 points, respectively. Also, the “Bosting of last flavor Evaluation” value in test [2] (setting [4]) was “AA (“AA” when it was 3.0 or higher)”; in test [2] (setting [5]) it was “B (“B” when it was 2.0 or higher and 2.5 or lower)”. The “Top sharp saltiness Average” value in test [3] (setting [7]) was 2.8 points; in test [3] (setting [6]), 2.3 points. Moreover, the “Top sharp saltiness Evaluation” value was “A (“A” when it was 2.6 or higher and 2.9 or lower)” in test [3] (setting [4]); “B (“B” when it was 2.0 or higher and 2.5 or lower)” in test [3] (setting [5]).
As to cyclic (Ala-Asn) [Coriander ID 56], the “Middle fullness Average” value in test [1] (setting [4]) was 2.3 points; in test [1] (setting [6]) it was 2.7 points. Moreover, the “Middle fullness Evaluation” value is “B (“B” when it was 2.0 or higher and 2.5 or lower)” in test [1] (setting [4]); “A (“A” when it was 2.6 or higher and 2.9 or lower)” in test [1] (setting [5]). Further, the “Bosting of last flavor Average” value in test [2] (setting [4]) came to 2.3 points; in test [2] (setting [6]), 2.5 points. The “Bosting of last flavor Evaluation” value in test [2] (setting [4]) was “B (“B” when it was 2.0 or higher and 2.5 or lower)”; in test [2] (setting [5]), “B (“B” when it was 2.0 or higher and 2.5 or lower)”. Moreover, the “Top sharp saltiness Average” value in test [3] (setting [7]) is 2.3 points; in test [3] (setting [6]) it was 2.0 points. In addition, the “Top sharp saltiness Evaluation” value in test [3] (setting [4]) was “B (“B” when it was 2.0 or higher and 2.5 or lower)”; in test [3] (setting [5]) it was “B (“B” when it was 2.0 or higher and 2.5 or lower)”.
As for cyclic (Ala-Tyr) [Coriander ID 26], the “Middle fullness Average” value amounted to 2.3 points in test [1] (setting [4]) and 2.2 points in test [1] (setting [6]). Moreover, the “Middle fullness Evaluation” value was “B (“B” when it was 2.0 or higher and 2.5 or lower)” in test [1] (setting [4]); “B (“B” when it was 2.0 or higher and 2.5 or lower)” in test [1] (setting [5]). Besides, the figures for the “Bosting of last flavor Average” value in test [2] (setting [4]) and in test [2] (setting [6]) were 2.2 points and 2.3 points, respectively. Also, the “Bosting of last flavor Evaluation” value in test [2] (setting [4]) is “B (“B” when it was 2.0 or higher and 2.5 or lower)”; in test [2] (setting [5]) it was “B (“B” when it was 2.0 or higher and 2.5 or lower)”. The entries for the “Top sharp saltiness Average” value in test [3] (setting [7]) and in test [3] (setting [6]) were 2.2 points and 1.3 points, respectively. Further, the “Top sharp saltiness Evaluation” value is “B (“B” when it was 2.0 or higher and 2.5 or lower)” in test [3] (setting [4]); “C (“C” when it was 1.1 or higher and 1.9 or lower)” in test [3] (setting [5]).
On to cyclic (Val-Ser) [Coriander ID 59], for which the “Middle fullness Average” value in test [1] (setting [8]) is 2.7 points; in test [1] (setting [10]) it was 2.2 points. In addition, the “Middle fullness Evaluation” value in test [1] (setting [8]) was “A (“A” when it was 2.6 or higher and 2.9 or lower)”; in test [1] (setting [9]), “B (“B” when it was 2.0 or higher and 2.5 or lower)”. Also, the “Bosting of last flavor Average” value is 2.7 points in test [2] (setting [8]) and 2.8 points in test [2] (setting [10]). The “Bosting of last flavor Evaluation” value is “A (“A” when it was 2.6 or higher and 2.9 or lower)” in test [2] (setting [8]); “A (“A” when it was 2.6 or higher and 2.9 or lower)” in test [2] (setting [9]). Further, the “Top sharp saltiness Average” value in test [3] (setting [11]) is on record as 2.5 points; in test [3] (setting [10]) it was 1.8 points. The “Top sharp saltiness Evaluation” value is “B (“B” when it was 2.0 or higher and 2.5 or lower)” in test [3] (setting [8]); “C (“C” when it was 1.1 or higher and 1.9 or lower)” in test [3] (setting [9]).
cyclic (Gly-Phe) [Coriander ID 28]: the “Middle fullness Average” value worked out at 3.2 points in test [1] (setting [8]) and 2.5 points in test [1] (setting [10]). The “Middle fullness Evaluation” value in test [1] (setting [8]) is “AA (“AA” when it was 3.0 or higher)”; in test [1] (setting [9]), “B (“B” when it was 2.0 or higher and 2.5 or lower)”. Further, the “Bosting of last flavor Average” value in test [2] (setting [8]) came out at 3.2 points; in test [2] (setting [10]), 2.5 points. Besides, the “Bosting of last flavor Evaluation” value in test [2] (setting [8]) is “AA (“AA” when it was 3.0 or higher)”; in test [2] (setting [9]), “B (“B” when it was 2.0 or higher and 2.5 or lower)”. The “Top sharp saltiness Average” value in test [3] (setting [11]) came to 2.7 points; in test [3] (setting [10]), 2.3 points. Besides, the “Top sharp saltiness Evaluation” value in test [3] (setting [8]) was “A (“A” when it was 2.6 or higher and 2.9 or lower)”; in test [3] (setting [9]) it was “B (“B” when it was 2.0 or higher and 2.5 or lower)”.

The values are drawn from US20260231994A1, “TASTE-ENHANCING COMPOSITION, METHOD FOR PRODUCING SAME, FOOD PRODUCT, AND METHOD FOR ENHANCING TASTE OF FOOD PRODUCT” (HOUSE FOODS GROUP INC., priority 2023, published 2026).
